Measured values taken from PubChem BioAssay AID330 (DTP/NCI, 2004).
“And” between values parts separate entries of the source, which are not always exact repeats. Equal values may be shown once. Toxic doses and inconclusive results are not listed. The calls were made as follows: active = survival T/C of 150% or more; inactive = T/C below 125% in these data.

System: P388 leukemia ip, CD2F1 mice, survival T/C
Test: NCI In Vivo Anticancer Drug Screen. Data for tumor model P388 Leukemia (intraperitoneal) in CD2F1 (CDF1) mice
Settings: endpoint: median survival time, higher = longer survival
Method in brief: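 Mice carrying the transplanted tumor received test compound or vehicle. Survival was recorded in each group, and the value is the treated-group measurement divided by that of the vehicle-treated control group.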

[1] = dose: 100.0 mg/kg/injection, schedule: Q01DX001 (ip), vehicle: saline
[2] = dose: 200.0 mg/kg/injection, schedule: Q01DX001 (ip), vehicle: saline
[3] = dose: 400.0 mg/kg/injection, schedule: Q01DX001 (ip), vehicle: saline
[4] = dose: 100.0 mg/kg/injection, schedule: Q04DX003 (ip), vehicle: saline with Tween-80
[5] = dose: 200.0 mg/kg/injection, schedule: Q04DX003 (ip), vehicle: saline with Tween-80
[6] = dose: 400.0 mg/kg/injection, schedule: Q04DX003 (ip), vehicle: saline with Tween-80
[7] = dose: 60.0 mg/kg/injection, schedule: Q01DX005 (ip), vehicle: saline with Tween-80
[8] = dose: 120.0 mg/kg/injection, schedule: Q01DX005 (ip), vehicle: saline with Tween-80
[9] = dose: 100.0 mg/kg/injection, schedule: Q01DX009 (ip), vehicle: saline with Tween-80
[10] = dose: 200.0 mg/kg/injection, schedule: Q01DX009 (ip), vehicle: saline with Tween-80
[11] = dose: 100.0 mg/kg/injection, schedule: Q04DX003 (ip), vehicle: saline
[12] = dose: 200.0 mg/kg/injection, schedule: Q04DX003 (ip), vehicle: saline
[13] = dose: 50.0 mg/kg/injection, schedule: Q01DX009 (ip), vehicle: Klucel (hydroxypropylcellulose) (HPC)
[14] = dose: 100.0 mg/kg/injection, schedule: Q01DX009 (ip), vehicle: Klucel (hydroxypropylcellulose) (HPC)
[15] = dose: 200.0 mg/kg/injection, schedule: Q01DX009 (ip), vehicle: Klucel (hydroxypropylcellulose) (HPC)
[16] = dose: 50.0 mg/kg/injection, schedule: Q01DX009 (ip), vehicle: saline with Tween-80

Measured: T/C

O=C(CBr)c1cc2ccccc2[nH]1
inactive: [1] 110 % of control | [2] 106 % of control | [3] 106 % of control

CC1OC(OC2C(OC3C(OC4CCC5(C)C(CCC6(C)C5CC=C5C7CC(C)(C)CCC7(C(=O)O)CCC56C)C4(C)C)OCC(O)C3O)OC(CO)C(O)C2O)C(O)C(O)C1O (stereo not drawn)
inactive: dose: 3.75 mg/kg/injection, schedule: Q01DX005 (ip), vehicle: distilled water + Tween-80 98 % of control | dose: 7.5 mg/kg/injection, schedule: Q01DX005 (ip), vehicle: distilled water + Tween-80 100 % of control

CC(N)C(=O)NC1C(O)OC(CO)C(O)C1O (stereo not drawn)
inactive: dose: 25.0 mg/kg/injection, schedule: Q01DX009 (ip), vehicle: water 101 % of control | dose: 50.0 mg/kg/injection, schedule: Q01DX009 (ip), vehicle: water 104 % of control | dose: 100.0 mg/kg/injection, schedule: Q01DX009 (ip), vehicle: water 111 % of control | dose: 200.0 mg/kg/injection, schedule: Q01DX009 (ip), vehicle: water 104 % of control | dose: 400.0 mg/kg/injection, schedule: Q01DX009 (ip), vehicle: water 101 % of control | dose: 800.0 mg/kg/injection, schedule: Q01DX009 (ip), vehicle: water 93 % of control

N#CC[N+]1(Cc2ccccn2)CCCC1
inactive: dose: 60.0 mg/kg/injection, schedule: Q01DX005 (ip), vehicle: saline 101 % of control | dose: 120.0 mg/kg/injection, schedule: Q01DX005 (ip), vehicle: saline 108 % of control

Clc1cccc(-c2nc3ccccc3c3ccccc23)c1
inactive: [4] 100 % of control | [5] 90 % of control | [6] 90 % of control

OC(CO/N=C1/c2ccccc2CCC1Cc1ccccc1)CN1CCOCC1 (stereo not drawn)
inactive: [7] 108 % of control | [8] 116 % of control | dose: 240.0 mg/kg/injection, schedule: Q01DX005 (ip), vehicle: saline with Tween-80 114 % of control

Cc1ccccc1N=Cc1ccc(N(C)C)cc1
inactive: [9] 91 % of control | [10] 87 % of control

Cc1ccc(S(=O)(=O)C[n+]2ccc3ccccc3c2)cc1
inactive: [4] 98 % of control | [11] 114 % of control and 118 % of control | [5] 105 % of control | [12] 117 % of control | [6] 100 % of control

CCCCCCC1C(C#N)C(=O)NC(=O)C1C#N (stereo not drawn)
inactive: [13] 96 % of control | [14] 95 % of control | [15] 93 % of control

CCOc1c(Br)cc(/C=C(\C)[N+](=O)[O-])cc1OC
inactive: [7] 112 % of control | [8] 106 % of control

CC(=O)/C=C/C=C\C=C/N=C(c1ccccc1)c1ccccc1
inactive: dose: 50.0 mg/kg/injection, schedule: Q04DX003 (ip), vehicle: saline with Tween-80 95 % of control | [4] 93 % of control | [5] 93 % of control

CC(C)(C)c1cc(C(=O)O)c(S)c(C(=O)O)c1
inactive: [13] 104 % of control and 109 % of control | [14] 102 % of control and 100 % of control | [15] 93 % of control

COc1ccc(Cc2cc(C(C)(C)C)cc(C(C)(C)C)c2OC)cc1
inactive: dose: 50.0 mg/kg/injection, schedule: Q01DX005 (ip), vehicle: distilled water + alcohol 99 % of control | dose: 100.0 mg/kg/injection, schedule: Q01DX005 (ip), vehicle: distilled water + alcohol 96 % of control | dose: 200.0 mg/kg/injection, schedule: Q01DX005 (ip), vehicle: distilled water + alcohol 99 % of control

CC1C(=O)CCC2C1(C)CCC1C2(C)CCC2(C)C3CC(C)(C(=O)O)CCC3(C)CCC12C (stereo not drawn)
inactive: dose: 12.5 mg/kg/injection, schedule: Q01DX005 (ip), vehicle: Klucel (hydroxypropylcellulose) (HPC) 94 % of control | dose: 25.0 mg/kg/injection, schedule: Q01DX005 (ip), vehicle: Klucel (hydroxypropylcellulose) (HPC) 100 % of control | dose: 50.0 mg/kg/injection, schedule: Q01DX005 (ip), vehicle: Klucel (hydroxypropylcellulose) (HPC) 88 % of control | dose: 100.0 mg/kg/injection, schedule: Q01DX005 (ip), vehicle: Klucel (hydroxypropylcellulose) (HPC) 87 % of control

c1cc[n+](-c2nc3ccccc3[n-]2)cc1
inactive: [11] 100 % of control | [12] 98 % of control | dose: 400.0 mg/kg/injection, schedule: Q04DX003 (ip), vehicle: saline 100 % of control

Cc1oc(NC(=O)C(=O)O)c(C#N)c1C
inactive: [16] 88 % of control | [9] 102 % of control | [10] 88 % of control

CCOC(=O)c1ccc(NC(=O)CS)cc1
inactive: dose: 25.0 mg/kg/injection, schedule: Q01DX009 (ip), vehicle: saline with Tween-80 98 % of control | [16] 99 % of control | [9] 102 % of control | [10] 108 % of control

Cc1ccc(S(=O)(=O)C(Cl)(SCl)Sc2ccccc2)cc1 (stereo not drawn)
inactive: [13] 95 % of control | [14] 93 % of control | [15] 93 % of control

COc1ccc(C2=NNC(=O)CC2)cc1OC
inactive: dose: 12.5 mg/kg/injection, schedule: Q04DX003 (ip), vehicle: saline 99 % of control | dose: 25.0 mg/kg/injection, schedule: Q04DX003 (ip), vehicle: saline 101 % of control | dose: 50.0 mg/kg/injection, schedule: Q04DX003 (ip), vehicle: saline 101 % of control

O=C(NCCc1nc(-c2nc(C(=O)O)cs2)cs1)c1ccccc1
inactive: [9] 100 % of control | [10] 100 % of control | dose: 400.0 mg/kg/injection, schedule: Q01DX009 (ip), vehicle: saline with Tween-80 90 % of control

CCCCCC(O)CCCCC
inactive: [4] 100 % of control | [5] 109 % of control | [6] 100 % of control

NC(CS)C(=O)O (stereo not drawn)
inactive: dose: 50.0 mg/kg/injection, schedule: Q01DX005 (ip), vehicle: saline with Tween-80 101 % of control | dose: 50.0 mg/kg/injection, schedule: Q01DX009 (ip), vehicle: saline 115 % of control | dose: 100.0 mg/kg/injection, schedule: Q01DX005 (ip), vehicle: saline with Tween-80 107 % of control | dose: 100.0 mg/kg/injection, schedule: Q01DX009 (ip), vehicle: saline 110 % of control | dose: 200.0 mg/kg/injection, schedule: Q01DX005 (ip), vehicle: saline with Tween-80 110 % of control | dose: 200.0 mg/kg/injection, schedule: Q01DX009 (ip), vehicle: saline 109 % of control

CCN(CC)/C([Se])=N/N=C(\C)c1ccccn1
inactive: dose: 100.0 mg/kg/injection, schedule: Q04DX003 (ip), vehicle: Klucel (hydroxypropylcellulose) (HPC) 108 % of control | dose: 200.0 mg/kg/injection, schedule: Q04DX003 (ip), vehicle: Klucel (hydroxypropylcellulose) (HPC) 102 % of control

C=C1C2CCC3C(CCC4C5(C)CCCC43C3OCCN3C5)(C2)C1OC(C)=O (stereo not drawn)
inactive: dose: 12.0 mg/kg/injection, schedule: Q01DX009 (ip), vehicle: Klucel (hydroxypropylcellulose) (HPC) 100 % of control | dose: 24.0 mg/kg/injection, schedule: Q01DX009 (ip), vehicle: Klucel (hydroxypropylcellulose) (HPC) 96 % of control | dose: 48.0 mg/kg/injection, schedule: Q01DX009 (ip), vehicle: Klucel (hydroxypropylcellulose) (HPC) 91 % of control

COc1ccc(CS(=O)(=O)c2cncnc2N)cc1OC
inactive: [1] 106 % of control | [2] 96 % of control | [3] 101 % of control

CCC1(O)C(=O)Nc2ccccc2C1=O (stereo not drawn)
inactive: dose: 60.0 mg/kg/injection, schedule: Q01DX005 (ip), vehicle: Klucel (hydroxypropylcellulose) (HPC) 98 % of control | dose: 120.0 mg/kg/injection, schedule: Q01DX005 (ip), vehicle: Klucel (hydroxypropylcellulose) (HPC) 88 % of control | dose: 240.0 mg/kg/injection, schedule: Q01DX005 (ip), vehicle: Klucel (hydroxypropylcellulose) (HPC) 98 % of control
